In PMC12396409, “Screening and hit evaluation of a microbial metabolite library against the pathogenic Plasmodium falciparum and Toxoplasma gondii parasites” (International Journal for Parasitology: Drugs and Drug …, 2025):
Like-named read-outs stand apart in the source and are kept apart here.

Experiments:
[1] = tested on: T. gondii RH strain (RH-Tub-eYFP) tachyzoites; assay: microbe, parasite or virus in culture; type: cell-based, Toxoplasma gondii; conditions: for percent parasite growth at 2 µg/mL: Toxoplasma gondii
[2] = tested on: P. falciparum 3D7 parasites; assay: P. falciparum growth inhibition assay, 1-cycle (72 h treatment), SYBR DNA staining (library screen at 2 μg/mL and dose-response); type: cell-based, Plasmodium falciparum; conditions: for activity at 2 µg/mL: Plasmodium falciparum
[3] = tested on: P. falciparum 3D7 parasites; assay: P. falciparum growth inhibition assay, 2-cycle (120 h treatment), delayed-death screen and dose-response; type: cell-based, Plasmodium falciparum; conditions: for activity at 2 µg/mL: Plasmodium falciparum
[4] = library screen at 2 μg/mL, 72 h, % growth, replicate 1
[5] = library screen at 2 μg/mL, 72 h, % growth, replicate 2
[6] = 72 h, T. gondii, 72 h, parasite screen 2 μg/mL, % growth, replicate 1, read-out: Tg_72h_%Growth_Rep1
[7] = 72 h, T. gondii, 72 h, parasite screen 2 μg/mL, % growth, replicate 2, read-out: Tg_72h_%Growth_Rep2

COc1cc2c(c3oc(=O)c4c(c13)CCOC4=O)C1C=COC1O2 (stereo not drawn) [Aflatoxin G1] was tested, and the Tg_72h_%Growth_Rep1 [1] was 81.49%, the Tg_72h_%Growth_Rep2 [1] was 92.08% and the Pf_72h_%Growth_Rep1 [2] was 72.54%. For the same molecule, the Pf_72h_%Growth_Rep2 [2] was 87.39%, the Pf_120h_%Growth_Rep1 [3] was 145.89% and the Pf_120h_%Growth_Rep2 [3] was 92.80%.

For COc1c(C[C@@H](C)OC(=O)Oc2ccc(O)cc2)c2c3c(C[C@@H](C)OC(=O)c4ccccc4)c(OC)c(=O)c4c(O)cc(OC)c(c5c(OC)cc(O)c(c1=O)c52)c43 [Calphostin C], the percent parasite growth at 2 µg/mL ([1]; T. gondii, 72 h, screen at 2 μg/mL, replicate 1, read-out: Tg_72h_%Growth_Rep1) was 1%, the percent parasite growth at 2 µg/mL ([1]; T. gondii, 72 h, screen at 2 μg/mL, replicate 2, read-out: Tg_72h_%Growth_Rep2) was 2.07% and the activity at 2 µg/mL ([2]; 3D7, P. falciparum, 72 h, screen at 2 μg/mL, replicate 1, read-out: Pf_72h_%Growth_Rep1) was 13.6%. For the same molecule, the activity at 2 µg/mL ([2]; 3D7, P. falciparum, 72 h, screen at 2 μg/mL, replicate 2, read-out: Pf_72h_%Growth_Rep2) was 9.2%, the activity at 2 µg/mL ([3]; 3D7, P. falciparum, 120 h, screen at 2 μg/mL, replicate 1, read-out: Pf_120h_%Growth_Rep1) was 17% and the activity at 2 µg/mL ([3]; 3D7, P. falciparum, 120 h, screen at 2 μg/mL, replicate 2, read-out: Pf_120h_%Growth_Rep2) was 9.44%.

C=C(NC(=O)C(=C)NC(=O)c1csc(C2=N[C@@H]3c4csc(n4)[C@H]4NC(=O)c5csc(n5)[C@H]([C@](C)(O)[C@@H](C)O)NC(=O)[C@H]5CSC(=N5)/C(=C/C)NC(=O)[C@H]([C@@H](C)O)NC(=O)c5csc(n5)[C@]3(CC2)NC(=O)[C@H](C)NC(=O)C(=C)NC(=O)C(=C)NC(=O)[C@H](C(C)C)N[C@@H]2C=Cc3c([C@H](C)O)cc(nc3[C@H]2O)C(=O)O[C@@H]4C)n1)C(N)=O [Siomycin A] showed a Tg_72h_%Growth_Rep1 ([1]; T. gondii, 72 h, parasite screen 2 μg/mL, % growth, replicate 1) of 94.53%, a Tg_72h_%Growth_Rep2 ([1]; T. gondii, 72 h, parasite screen 2 μg/mL, % growth, replicate 2) of 80.70% and a Pf_72h_%Growth_Rep1 ([2]; P. falciparum, 72 h, parasite screen 2 μg/mL, % growth, replicate 1) of 88.11%. The Pf_72h_%Growth_Rep2 ([2]; P. falciparum, 72 h, parasite screen 2 μg/mL, % growth, replicate 2) was 105.15%, the Pf_120h_%Growth_Rep1 ([3]; P. falciparum, 120 h, parasite screen 2 μg/mL, % growth, replicate 1) was 88.55% and the Pf_120h_%Growth_Rep2 ([3]; P. falciparum, 120 h, parasite screen 2 μg/mL, % growth, replicate 2) was 55.07%.

CCCC1CC(C(=O)NC(C(C)O)C2OC(SC)C(O)C(O)C2O)N(C)C1 (stereo not drawn) [BIA-L1457] was tested, and the Tg_72h_%Growth_Rep1 ([1]; T. gondii RH, 72 h, library screen at 2 μg/mL, % growth, replicate 1) was 26.67%, the Tg_72h_%Growth_Rep2 ([1]; T. gondii RH, 72 h, library screen at 2 μg/mL, % growth, replicate 2) was 42.80% and the Pf_72h_%Growth_Rep1 ([2]; P. falciparum 3D7, 72 h, library screen at 2 μg/mL, % growth, replicate 1) was 49.27%. The Pf_72h_%Growth_Rep2 ([2]; P. falciparum 3D7, 72 h, library screen at 2 μg/mL, % growth, replicate 2) was 59.50%, the Pf_120h_%Growth_Rep1 ([3]; P. falciparum 3D7, 120 h, library screen at 2 μg/mL, % growth, replicate 1) was 9.59% and the Pf_120h_%Growth_Rep2 ([3]; P. falciparum 3D7, 120 h, library screen at 2 μg/mL, % growth, replicate 2) was 18.68%.

O=C(N[C@H](COC(=O)[C@H](Cc1ccccc1)NC(=O)c1ccccc1)Cc1ccccc1)c1ccccc1 [Asperphenamate] showed a percent parasite growth at 2 µg/mL ([1]; 72 h, library screen at 2 μg/mL, 72 h, % growth, replicate 1, read-out: Tg_72h_%Growth_Rep1) of 150%, a percent parasite growth at 2 µg/mL ([1]; 72 h, library screen at 2 μg/mL, 72 h, % growth, replicate 2, read-out: Tg_72h_%Growth_Rep2) of 107% and an activity at 2 µg/mL ([2]; 3D7, library screen at 2 μg/mL, 72 h, % growth, replicate 1, read-out: Pf_72h_%Growth_Rep1) of 84.3%. It also gave an activity at 2 µg/mL ([2]; 3D7, library screen at 2 μg/mL, 72 h, % growth, replicate 2, read-out: Pf_72h_%Growth_Rep2) of 83.3%, an activity at 2 µg/mL ([3]; 3D7, library screen at 2 μg/mL, 120 h, % growth, replicate 1, read-out: Pf_120h_%Growth_Rep1) of 69.7% and an activity at 2 µg/mL ([3]; 3D7, library screen at 2 μg/mL, 120 h, % growth, replicate 2, read-out: Pf_120h_%Growth_Rep2) of 85.4%.

For C/C=C(\C)C(=O)OC[C@H]1O[C@H](O[C@H]2O[C@H](COC(=O)/C(C)=C/C)[C@@H](O)[C@H](O)[C@H]2O[C@@H]2O[C@H](CO)[C@@H](OC(=O)/C(C)=C/C)[C@H](OC(=O)/C(C)=C/C)[C@H]2O)[C@H](O[C@@H]2O[C@H](CO)[C@@H](OC(=O)/C(C)=C/C)[C@H](OC(=O)/C(C)=C/C)[C@H]2O)[C@@H](O)[C@@H]1O [Actinotetraose Hexatiglate], the Tg_72h_%Growth_Rep1 [1, 4] was 97.33%, the Tg_72h_%Growth_Rep2 [1, 5] was 100.02% and the “1) Growth (%) at 72 h” value ([2]; P. falciparum, 2 μg/mL, 72 h) was 46.54%. The Pf_72h_%Growth_Rep1 [2, 4] was 45.55%, the Pf_72h_%Growth_Rep2 [2, 5] was 47.53% and the “2) Growth (%) at 120 h” value ([3]; P. falciparum, 2 μg/mL, 120 h) was 19.22%. For the same molecule, the “3) Fold change (72 h/120 h)” value ([3]; P. falciparum, growth at 72 h / growth at 120 h, 2 μg/mL) was 2.4, the Pf_120h_%Growth_Rep1 ([3]; library screen at 2 μg/mL, 120 h, % growth, replicate 1) was 16.78% and the Pf_120h_%Growth_Rep2 ([3]; library screen at 2 μg/mL, 120 h, % growth, replicate 2) was 21.66%.

Cc1cc(O)c2c3c4c(cc(O)c13)C(C)(C)C(=O)c1c(O)cc(O)c(c1-4)C2=O [Resistomycin] was tested, and the percent parasite growth at 2 µg/mL [1, 6] was 221%, the percent parasite growth at 2 µg/mL [1, 7] was 125% and the activity at 2 µg/mL ([2]; 3D7, 72 h, P. falciparum, 72 h, parasite screen 2 μg/mL, % growth, replicate 1, read-out: Pf_72h_%Growth_Rep1) was 82%. For the same molecule, the activity at 2 µg/mL ([2]; 3D7, 72 h, P. falciparum, 72 h, parasite screen 2 μg/mL, % growth, replicate 2, read-out: Pf_72h_%Growth_Rep2) was 102%, the activity at 2 µg/mL ([3]; 3D7, 120 h, P. falciparum, 120 h, parasite screen 2 μg/mL, % growth, replicate 1, read-out: Pf_120h_%Growth_Rep1) was 78.2% and the activity at 2 µg/mL ([3]; 3D7, 120 h, P. falciparum, 120 h, parasite screen 2 μg/mL, % growth, replicate 2, read-out: Pf_120h_%Growth_Rep2) was 130%.

With Cc1cc(O)c2c(c1)C(=O)c1c(c(O)cc(O)c1-c1c(O)cc(O)c3c1C(=O)c1cc(C)cc(O)c1C3=O)C2=O [Skyrin] the percent parasite growth at 2 µg/mL [1, 6] was 114%, the percent parasite growth at 2 µg/mL [1, 7] was 84.9% and the activity at 2 µg/mL ([2]; 3D7, P. falciparum, 72 h, parasite screen 2 μg/mL, % growth, replicate 1, read-out: Pf_72h_%Growth_Rep1) was 80.4%. The activity at 2 µg/mL ([2]; 3D7, P. falciparum, 72 h, parasite screen 2 μg/mL, % growth, replicate 2, read-out: Pf_72h_%Growth_Rep2) was 120%, the activity at 2 µg/mL ([3]; 3D7, P. falciparum, 120 h, parasite screen 2 μg/mL, % growth, replicate 1, read-out: Pf_120h_%Growth_Rep1) was 75.2% and the activity at 2 µg/mL ([3]; 3D7, P. falciparum, 120 h, parasite screen 2 μg/mL, % growth, replicate 2, read-out: Pf_120h_%Growth_Rep2) was 137%.
